The source made the active and inactive calls.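 Rule for the calls: active = compounds whose fitted half-maximal concentration in the cell-protection dose series is at or below a set limit; inactive = the rest.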

This assay has as its system H9c2 cardiomyocytes, 2-deoxyglucose stress, ATP luminescence, 2 h. As to the kind of experiment: protection of cardiomyocytes from 2-deoxyglucose injury, dose response, cell-based, 2-deoxyglucose stress, uHTS hits (AID 588780).
Broadly, the IC50 is the concentration needed to halve the response being measured. In the case of `CC(C)(C)OC(=O)NCCCCCNC(=O)c1[nH]cnc1C(=O)Nc1cc(Br)ccc1F`, the IC50 was > 79 µM (inactive).
Turning to `CN(CC(=O)Nc1c(Cl)cccc1Cl)C(=O)Cn1[nH]c(=O)c2ccccc2c1=O`, the IC50 was > 79 µM (inactive).
In the case of `CCOC(=O)Cc1csc(NC(=O)NC2(C(F)(F)F)Oc3ccccc3O2)n1` it was 35.3 µM (inactive); in that of `CCN(CC)C(=O)c1[nH]cnc1C(=O)NCC(=O)OCc1ccccc1`, > 79 µM (inactive); in that of `COc1ccc(CC(=O)N/N=C(\C)c2ccccn2)cc1`, 26.7 µM.
Consider `CC(OC(=O)CCc1nc2ccccc2c(=O)[nH]1)C(=O)Nc1ccc2c(c1)OCO2` (stereo not given), for which the IC50 was > 79 µM (inactive).
`C=CCOC(=O)COc1ccc2c3c(c(=O)oc2c1)CCCC3`: the IC50 was 28.1 µM.
For the compound `COc1cc(-c2cc3nc(NCCc4ccc(S(N)(=O)=O)cc4)ccn3n2)cc(OC)c1OC`, the IC50 was 15.8 µM.
As for `CN(CC(=O)Nc1cccc(F)c1)C(=O)CCCc1nc2ccccc2c(=O)[nH]1`, the IC50 is > 79 µM (inactive).
In the case of `CCCCCn1nc(C(=O)OCC(=O)c2c(N)n(C)c(=O)n(C)c2=O)c2ccccc2c1=O` it was 20.1 µM; in that of `COc1ccc(-c2csc(NC(=O)c3cccc(N4C(=O)CCC4=O)c3)n2)cc1OC`, 10.6 µM.
Take `Cc1cc(Cl)ccc1OCCCC(=O)NNC(=O)c1ccccc1O`: the IC50 was > 79 µM (inactive).
In the case of `Cc1cccc(C(=O)NC(C(=O)Nc2nc(-c3ccccn3)cs2)C(C)C)c1` (stereo not given) it was 12.7 µM; in that of `CCN(CC)C(=O)c1ccc2c3c(cccc13)C(=O)N(CCc1ccc(OC)c(OC)c1)C2=O`, 11.5 µM.
`CC(C)(C)c1nn(-c2ccccc2)c2[nH]c(=O)c(CNCc3ccco3)cc12`: the IC50 is 40.3 µM (inactive).
Then `CCCNC(=O)c1c(N)n(-c2cccc(OC)c2)c2nc3ccccc3nc12`, with > 79 µM (inactive); and `CCOC(=O)CNC(=O)CSc1nc2nc(C)c(Br)cc2[nH]1`, with > 79 µM (inactive); and `O=C(CN1CCCCC1)Nc1nc(-c2ccc(F)c(F)c2)cs1`, with 70.7 µM (inactive).
As to `Cc1ccccc1N(C(=O)c1snc(C(N)=O)c1N)C(C(=O)NCc1ccccc1)c1ccc(O)cc1` (stereo not given), the IC50 was 17.8 µM.
With `COc1cc(C(=O)N/N=C/c2sc(N3CCOCC3)nc2-c2ccccc2)cc(OC)c1OC`, the IC50 was 25.8 µM.
For `COc1ccc(-n2c(/C=C/c3ccc(O)c(OC)c3)nc3ccccc3c2=O)cc1`, the IC50 was > 79 µM (inactive).
As for `Cc1cccc(N2CCN(C(=O)CCc3nc4ccccc4c(=O)[nH]3)CC2)c1C`, the IC50 was > 79 µM (inactive).
For the compound `CCc1nc2ccc(C(=O)Nc3cc(-c4ccccc4)ccc3OC)cn2c1N(C)Cc1nccs1`, the IC50 is 9.62 µM.
In the case of `O=C(Cn1[nH]c(=O)c2ccccc2c1=O)OCC(=O)N1CCCc2ccccc21`, the IC50 is 51.3 µM (inactive).
`CN1C(=O)CSc2ccc(NC(=O)Nc3ccccn3)cc21`: the IC50 was > 79 µM (inactive).
On to `COC(=O)c1ccc(C(NC(=O)OCc2ccccc2)/C(C)=C/[C@@H](C)C(=O)NCc2ccc(OC)c(OC)c2)cc1` (stereo not given in full), for which the IC50 was 22.8 µM.
`COCc1c(C(=O)Nc2ccc3nc(N4CCOCC4)sc3c2)oc2ccccc12`: the IC50 was > 79 µM (inactive).
On to `O=C(Oc1ccc(N(Cc2cccs2)C2=NS(=O)(=O)c3ccccc32)cc1)c1ccccc1Cl`, for which the IC50 is > 79 µM (inactive).
`COc1ccccc1NC(=O)COc1ccc(C(=O)OCC(=O)NC(C)(C)C)cc1OC`: the IC50 was 17.6 µM.
For the compound `CC1(C)CC2C1CCC1(O)CC2(C)CCC1N(O)c1ccc(C(=O)NCCO)cn1` (stereo not given), the IC50 was 28.5 µM.
Then `CC(C)c1ccccc1NC(=O)COC(=O)c1c2c(nc3ccccc13)CCN(Cc1ccccc1)C2`, with > 79 µM (inactive).
As to `COc1ccc(-c2nnc(-c3cc(OC)c(OC)c(OC)c3)o2)cc1OC`, the IC50 was 14.6 µM.
On to `CC(OC(=O)Cn1[nH]c(=O)c2ccccc2c1=O)C(=O)NC1(C#N)CCCCC1` (stereo not given), for which the IC50 is > 79 µM (inactive).
Take `O=C(COc1ccccc1Cl)NNC(=O)Cn1[nH]c(=O)c2ccccc2c1=O`: the IC50 was > 79 µM (inactive).
Consider `Cc1ccc(S(=O)(=O)N(C)C)cc1NC(=O)COC(=O)Cc1n[nH]c(=O)c2ccccc12`, for which the IC50 was > 79 µM (inactive).
As to `CC(C)(C)NC(=O)c1cccc(NC(=O)c2ccc(NC(=O)c3ccco3)cc2)c1`, the IC50 was 15.4 µM.
Then `COc1cc(/C=c2\s/c(=C(/C#N)C(=O)N3CCCC3)n(-c3ccccc3)c2=O)ccc1O`, with 25 µM; and `CCOC(=O)C(Cc1ccc(NC(=O)/C(=C/c2ccc(OC(C)=O)cc2)NC(C)=O)cc1)N1C(=O)c2ccccc2C1=O` (stereo not given), with > 79 µM (inactive).
In the case of `O=C(CSc1nc2ccccc2c(=O)[nH]1)c1ccccc1` it was > 79 µM (inactive); in that of `O=C(COC(=O)Cc1n[nH]c(=O)c2ccccc12)Nc1c(Br)cc([N+](=O)[O-])cc1Br`, > 79 µM (inactive).
Then `O=c1c2ccccc2nc(-c2ccc(Cl)c(Cl)c2)n1O`, with 8.16 µM.
Take `CC(NC(=O)c1cc2c(=O)n(C)c3ccccc3c2n1C)c1ccc2c(c1)OCCO2` (stereo not given): the IC50 was 30.5 µM (inactive).
As for `O=C(COc1ccc(Cl)cc1)NCc1n[nH]c(=O)c2ccccc12`, the IC50 is > 79 µM (inactive).
Then `O=C(CSC1=NNC(c2ccccn2)S1)Nc1cccc(Cl)c1` (stereo not given), with > 79 µM (inactive).
For `COc1cc(NC(=O)c2ccco2)c(C(=O)OCC(=O)c2c[nH]c3ccccc23)cc1OC`, the IC50 was 7.59 µM.
Regarding `Cc1c(C#N)c(N)nc2c3c(sc12)NC(=O)CC3c1ccc(Cl)cc1` (stereo not given), the IC50 is 19.7 µM.
`COc1cccc(C(=O)CSc2nnc(-c3cc(OC)c(OC)c(OC)c3)o2)c1`: the IC50 is > 79 µM (inactive).
Turning to `COc1ccc(-n2nc(C(=O)NCC(=O)Nc3cc(OC)c(OC)c(OC)c3)c3ccccc3c2=O)cc1Cl`, the IC50 is > 79 µM (inactive).
With `N#C/C(=C\Nc1ccc2c(c1)OCCO2)c1nc2ccccc2[nH]1`, the IC50 is > 79 µM (inactive).
Then `Cc1ccccc1N=Cc1cc2c(cc1[N+](=O)[O-])OCO2`, with > 79 µM (inactive).
Regarding `O=C(COc1ccc(F)cc1)Nc1nc(-c2ccccn2)cs1`, the IC50 is > 79 µM (inactive).
In the case of `CCOC(=O)c1c(NC(=O)COC(=O)Cc2n[nH]c(=O)c3ccccc23)sc(C(=O)NC)c1C`, the IC50 was > 79 µM (inactive).
For the compound `CN1CCc2nc3ccccc3c(C(=O)OCC(=O)N(CCC#N)c3ccccc3)c2C1`, the IC50 was 67.6 µM (inactive).
In the case of `O=Cc1ccc(OCc2cccc(C(F)(F)F)c2)cc1O`, the IC50 is 28.1 µM.
On to `N#CC1=C(N)Oc2c(O)cc3ccccc3c2C1c1ccsc1` (stereo not given), for which the IC50 is > 79 µM (inactive).
Then `Cc1ccc(-c2[nH]c3cc(C(N)=O)ccc3c(=O)c2O)cc1`, with > 79 µM (inactive); and `CN(C)Cc1ccc(-c2nc3cccc4c3n2CCNC4=O)cc1`, with 49.2 µM (inactive); and `O=c1oc(-c2ccco2)nc2c1cnn2-c1ccccc1`, with > 79 µM (inactive).
Regarding `Nc1cc2[nH]c(=O)c3ccccc3c2cc1Br`, the IC50 was > 79 µM (inactive).
As for `Cc1cc(C)c2ccc(N)nc2c1O`, the IC50 is > 79 µM (inactive).
In the case of `CCOC(=O)c1ccccc1NC(=O)c1ccc2c(=O)n3c(nc2c1)CCCCC3` it was > 79 µM (inactive).
In the case of `COc1cccc(Cn2nc(C(=O)O)c3ccccc3c2=O)c1`, the IC50 is 32.3 µM (inactive).
For `CCC1(CC)NC(=O)N(CC(=O)OCC(=O)Nc2ccccc2[N+](=O)[O-])C1=O`, the IC50 is > 79 µM (inactive).
Consider `O=C(Cn1nc(C(=O)O)c2ccccc2c1=O)c1c[nH]c2ccccc12`, for which the IC50 was 36.3 µM (inactive).
Consider `COc1ccc(-c2cc(NC(C)=O)c3ncc(-c4cccc(C(C)=O)c4)n3c2)cc1OC`, for which the IC50 was 7.56 µM.
Regarding `N#CCCN(C(=O)COC(=O)CCc1nc2ccccc2c(=O)[nH]1)c1ccccc1F`, the IC50 is > 79 µM (inactive).
Then `COc1cc(/C=N/NC(=O)c2cccnc2)ccc1OS(=O)(=O)c1ccc(F)cc1`, with 14.1 µM.
Then `COc1ccc(/C=C(\C#N)C(=O)c2c(C)[nH]c3ccccc23)cc1OC`, with > 79 µM (inactive); and `CC(=O)c1cccc(-c2cnc3c(NC=O)cc(-c4ccccc4F)cn23)c1`, with 17.9 µM.
Take `CCOC(=O)c1ccc(-c2ccc(C3Nc4ccccc4C(=O)N3O)o2)cc1` (stereo not given): the IC50 is 20.4 µM.
In the case of `COc1cc(-c2nnc(COC(=O)c3cc(C)nc4ccc(C)cc34)o2)cc(OC)c1OC`, the IC50 was 15.6 µM.
As to `CCCn1nc(C(=O)Nc2nc(-c3ccccn3)cs2)c2ccccc2c1=O`, the IC50 is > 79 µM (inactive).
Then `CCOc1cc(-c2cc(-c3ccc(N)cc3)nc(N)c2C#N)ccc1O`, with 12.3 µM; and `COc1cccc(/C=N/NC(=O)c2oc3nc(-c4ccccc4)cc(-c4ccco4)c3c2N)c1`, with > 79 µM (inactive).
For the compound `Cc1c(-c2ccccc2)oc2c(C(=O)OCC(=O)Nc3ccc(C(N)=O)cc3)cccc2c1=O`, the IC50 is 9.94 µM.
Take `NC(=O)c1nsc(C(=O)N(c2ccccc2F)C(C(=O)NCc2ccccc2)c2ccc(O)cc2)c1N` (stereo not given): the IC50 is > 79 µM (inactive).
Take `O=c1oc2ccc3ccccc3c2cc1-c1nnc(-c2ccccc2)o1`: the IC50 is 17.3 µM.
As for `C#CCOc1nc(Nc2cccc([N+](=O)[O-])c2)nc(OCC#C)n1`, the IC50 was > 79 µM (inactive).
In the case of `CCOC(=O)C1=NN(C(=O)c2ccco2)C2(CC2)C1` it was > 79 µM (inactive); in that of `COc1c(O)cccc1/C=N/NC(=O)Cn1ccnc1C`, > 79 µM (inactive); in that of `COc1cccc(CN(C)C(=O)C(Cc2ccccc2)NC(=O)c2ccccc2)c1OC` (stereo not given), 20.8 µM.
Consider `Cc1cc(O)c(C=Nc2ccc(N3CCOCC3)cc2)c(C)c1Cl`, for which the IC50 was > 79 µM (inactive).
`O=C(C[C@H]1C/C=C\CC[C@H](Cc2ccc(F)cc2)C(=O)O[C@H](c2ccccc2)CNC1=O)N[C@H](CO)Cc1ccccc1`: the IC50 was > 79 µM (inactive).
In the case of `CC(=O)c1cccc(Nc2nc3ccccc3n3cnnc23)c1` it was > 79 µM (inactive); in that of `Cc1onc(-c2ccccc2)c1C(=O)NC(=S)NNC(=O)c1ccccc1O`, 37.2 µM (inactive).

(Values after PubChem BioAssay AID588780 (Sanford-Burnham Center for Chemical Genomics, 2011).)
